Reference: patent US12097329B2, “Apparatus to administer drugs to mechanically ventilated patients” (Chiesi Farmaceutici S.p.A., priority 2018, dated 2024)
Where a name gives a salt, the structure may show the parent alone.

How the values were obtained:
[1] = Aerosol performance by Next Generation Impactor (NGI), drug quantified by HPLC; format: physicochemical; settings: BDP + FF 100 + 6 μg/10 mg DPI - Release
[2] = as above; format: physicochemical; settings: BDP + FF 100 + 6 μg/10 mg DPI 37° C. 75% RH T-vol 500; connected to ventilation system through the connector
Experimental: A powder formulation was prepared according to the teaching of Examples 2 and 3 of WO 2013/110632 and loaded in the multi-dose dry powder inhaler described in WO 2016/000983. A ventilator system Monnal T75, available from Air Liquid Medical Systems […], Italy) was used. A Catheter mounth (ID 10 mm, length 17 cm) and an endotracheal catheter (ID 8 mm, length 8.5 cm) were also utilized. Other equipments were standard. The following conditions were set-up: tidal volume: 500 ml; PEEP 5 cmH2O; Flow rate: about 41 l/min; breath frequency: 15 bpm. All tests were performed at room temperature and lung temperature (about 37° C.) with in line humidification (about 75% relative humidity system). The inhaler was connected to the ventilation system through the connector of the invention. The evaluation of the aerosol performance was carried out using the Next Generation Impactor (NGI) according to the conditions reported in the European Pharmacopeia 8.5th Ed 2015, par 2.9.18, pages 309-320. After aerosolization of three doses from the inhaler device, the NGI apparatus was disassembled and the amounts of drug deposited in the stages were recovered by washing with a solvent mixture and then quantified by High-Performance Liquid Chromatography (HPLC).

Compound	DD (delivered dose) [1]	EFPF (extrafine particle fraction) [1]	EFPM (extrafine FPM) [1]	FPF (fine particle fraction) [1]	FPM (fine particle mass, particle size equal to or lower than 5.0 micron) [1]	DD (delivered dose) [2]	EFPF (extrafine particle fraction) [2]	EFPM (extrafine FPM) [2]	FPF (fine particle fraction) [2]	FPM (fine particle mass, particle size equal to or lower than 5.0 micron) [2]
CCC(=O)OCC(=O)[C@@]1(OC(=O)CC)[C@@H](C)C[C@H]2[C@@H]3CCC4=CC(=O)C=C[C@]4(C)[C@@]3(Cl)[C@@H](O)C[C@@]21C [BDP, beclometasone dipropionate]	81.05 µg	29.43 % on DD	23.85 µg	64.14 % on DD	51.99 µg	66.52 µg	34.76 % on DD	23.12 µg	61.92 % on DD	41.19 µg
COc1ccc(CC(C)NCC(O)c2ccc(O)c(NC=O)c2)cc1 (stereo not drawn) [FF, formoterol fumarate dihydrate]	4.64 µg					3.84 µg				
